Where two headings read alike, the source gives them in different places.
What was measured:
SARS-CoV PLpro = conditions: read-out: IC50 against SARS-CoV PLpro; cited from earlier work
SARS-CoV-2 = test system: SARS-CoV-2; set-up: method as in earlier work; conditions: viral loads and survival rates; cited from earlier work
SARS-CoV-2 PLpro [1] = target: T1, SARS-CoV-2 PLpro (Severe acute respiratory syndrome coronavirus 2, UniProt P0DTD1); experiment: biochemical; conditions: for Fold increase of IC50 in presence of Tween-20: 0.01% Tween-20 versus none; for IC50: CIY substrate
[2] = Cellular cytotoxicity (CCK-8 / WST assay); type: cell-based; conditions: African green monkey, Vero CCL81 cells; 48 h treatment
SARS-CoV-2 WA1 strain [3] = experiment: Antiviral immunofluorescence assay (IFA) in Vero-E6 cells, WA1 strain; type: cell-based; conditions: Severe acute respiratory syndrome coronavirus 2, Vero C1008, MOI 0.01, Vero-E6 cells
USP25 = USP25 (Homo sapiens, UniProt Q9UHP3); experiment: USP25 selectivity FRET assay (CFP-ubiquitin-YFP substrate); type: biochemical; conditions: for SI (selectivity index): IC50-USP25/IC50-PLpro
SARS-CoV-2 PLpro [4] = target: T1, SARS-CoV-2 PLpro; experiment: Inhibition mechanism, Lineweaver-Burk plot with peptide-AMC substrate; type: biochemical; conditions: 40 nM PLpro
SARS-CoV-2 WA1 strain [5] = experiment: Antiviral plaque reduction assay (PRA) in Vero-E6 cells; conditions: read-out: EC50-PRA, MOI 0.01, Vero-E6 cells
[6] = test system: SARS-CoV-2 Omicron (B.1.1.529); experiment: microbe, parasite or virus in culture; type: cell-based
SARS-CoV-2 PLpro [7] = target: T1, SARS-CoV-2 PLpro; experiment: Surface plasmon resonance binding to immobilized PLpro; conditions: SPR, buffer with Tween-20, 25 °C
[8] = IC50-PLpro-tw, with 0.01% Tween-20

USP25, sequence (Q9UHP3 157-706): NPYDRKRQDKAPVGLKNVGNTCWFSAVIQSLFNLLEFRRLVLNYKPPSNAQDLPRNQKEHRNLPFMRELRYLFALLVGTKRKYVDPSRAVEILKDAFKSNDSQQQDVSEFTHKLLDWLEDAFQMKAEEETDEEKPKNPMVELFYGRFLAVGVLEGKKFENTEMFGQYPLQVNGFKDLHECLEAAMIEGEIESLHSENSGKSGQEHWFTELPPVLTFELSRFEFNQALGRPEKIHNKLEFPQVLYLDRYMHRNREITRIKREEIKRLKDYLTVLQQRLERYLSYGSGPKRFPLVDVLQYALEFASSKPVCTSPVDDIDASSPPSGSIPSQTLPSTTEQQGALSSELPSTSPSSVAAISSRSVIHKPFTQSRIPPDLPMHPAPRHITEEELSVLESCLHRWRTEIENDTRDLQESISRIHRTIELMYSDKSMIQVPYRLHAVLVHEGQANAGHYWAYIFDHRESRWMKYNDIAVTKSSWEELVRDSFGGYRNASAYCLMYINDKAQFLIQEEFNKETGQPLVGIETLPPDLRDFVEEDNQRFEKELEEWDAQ

CCn1ccc(-c2cc(-c3cnn(C)c3)cc([C@@H](C)NC(=O)c3cc(OCCN(C)C)ccc3C)c2)n1 [Jun12682]
Efficacy in mouse model infected with SARS-CoV-2 (SARS-CoV-2): efficacy in reducing viral loads and enhancing survival rates

CN1CCN(c2ccc([N+](=O)[O-])c3no[n+]([O-])c23)CC1 [NSC207895]
Fold increase of IC50 in presence of Tween-20 (SARS-CoV-2 PLpro [1]): more than 5 fold
IC50 (SARS-CoV-2 PLpro [1]; IC50-PLpro, without Tween-20): 0.9 µM
IC50 (SARS-CoV-2 PLpro [1]; [8]): 5 µM

COC(=O)C1(C)Cc2cc(OC(C)=O)c(OC(C)=O)cc2N1 (stereo not shown) [NSC341956]
Fold increase of IC50 in presence of Tween-20 (SARS-CoV-2 PLpro [1]): > 16 fold
IC50 (SARS-CoV-2 PLpro [1]; with 0.01% Tween-20, read-out: IC50-PLpro-tw): > 200 µM
IC50 (SARS-CoV-2 PLpro [1]; without Tween-20, read-out: IC50-PLpro): 12.4 µM

COC(=O)c1cc2c(n1S(=O)(=O)c1ccc(C)cc1)C(=O)C(=O)c1[nH]cc(C(=O)OCc3ccccc3)c1-2 [NSC679525]
CC50 at 48 h [2]: 18.6 µM
EC50 (SARS-CoV-2 WA1 strain [3]): 2.8 µM
IC50 (SARS-CoV-2 PLpro [1]; IC50, 5 Min Incubation, 5 min preincubation with the enzyme): 16.8 µM
IC50 (SARS-CoV-2 PLpro [1]; IC50, 60 Min Incubation, 60 min preincubation with the enzyme): 10.2 µM
IC50 (SARS-CoV-2 PLpro [1]; IC50-PLpro, without Tween-20): 6 µM
IC50 (SARS-CoV-2 PLpro [1]; [8]): 11 µM
IC50 (USP25; CFP-ubiquitin-YFP substrate, without Tween-20): 41 µM
SI (selectivity index) (USP25): > 4.7
SI (selectivity index) (USP25; listed as 679525): 6.8
Putative Mode of Action (mechanism of inhibition) (SARS-CoV-2 PLpro [4]): Non-competitive
EC50 (SARS-CoV-2 WA1 strain [5]): 0.4 µM
EC50 ([6]; Severe acute respiratory syndrome coronavirus 2, Vero C1008, read-out: EC50-Omi): 5.42 µM
EC50 ([6]; read-out: EC50-Omi): 5.4 µM
Kd (SARS-CoV-2 PLpro [7]): 4.1 µM
